Test results taken from patent publication US20180312493A1, “Antibiotic Compounds, Pharmaceutical Formulations Thereof And Methods And Uses Therefor” (Simon Fraser University, priority 2015, published 2018).
≈ marks a conversion by molar mass, not a printed value.

Target: T1, MRSA Pyk (Staphylococcus aureus, UniProt Q6GG09)
T1 construct: made in house; host or cells: E. coli BL-21 (DE3)
Assay: MRSA pyruvate kinase (PK) activity, continuous LDH-coupled assay
Type: biochemical, methicillin resistant S. aureus (MRSA252)
Conditions: not given
Description: Genomic DNA of MRSA strain Sanger 252 extracted using DNeasy Tissue Kit™ (Qiagen™) was used as a template to generate the His-tagged MRSA PK. Human cDNA from MCF-7 breast cancer cell line (courtesy of Dr. J Wong, BC Cancer Research Center (Vancouver, Canada)) was used as a template to generate the full-length human M2 PK enzyme. The following primer sets were used creating appropriate restriction sites (NdeI and XhoI sites underlined): For cloning of MRSA PK: M27F 5′-[…]-3′ and M27R 5′-[…]-3′, for cloning of human M2 PK isoform: hM2F 5′-[…]-3′ and hM2R 5′-[…]-3′. The resulting PCR fragments for each construct were cloned into the NdeI and XhoI unique sites of the bacterial expression vector pET-28a (+) (Novagen™). […] The sequence and the correct reading frame of all constructs were verified by sequencing. Human M1, R and L PK constructs in pET-28-a(+) vectors (courtesy of Dr. L. Cantley, Harvard Medical, School (Boston, USA)) were used to generate relevant recombinant His-tagged human PK isoforms.
MRSA and human constructs in pET-28a(+) were used to express relevant recombinant PK proteins in E. coli BL-21 (DE3). The proteins were expressed and purified using Ni-NTA agarose (Qiagen™) according to the manufacturer's protocol. Briefly, cells were grown to an absorbance of 0.4-0.5 at 600 nm in 2×YT medium, then induced with 0.1 mM IPTG for 3 h at 20° C. Cells were lysed by sonication on ice (3×10-s bursts with a 30-s recovery between bursts) in lysis buffer (0.2 mg/ml lysozyme, 50 mM Tris pH 7.5, 10 mM MgCl2, 200 mM NaCl, 100 mM KCl, 10% glycerol, 10 mM imidazole, 0.5% NP-40 and 1 mM DTT containing Complete™ protease inhibitor). Cell lysates were cleared by centrifugation (18,000×g in a Beckman™ JA-20 rotor) for 20 min at 4° C. and PK isoforms were purified by batch binding to Ni-NTA resin. The resins were then packed in columns (1×2 cm) and washed with 400 column volumes lysis buffer containing 30 mM imidazole. His-tagged PK isoforms were eluted with the same buffer containing 300 mM imidazole. The proteins were dialyzed overnight at 4° C. against 2000 volumes of ice-cold 30 mM Tris pH 7.5, 25 mM KCl, 5 mM MgCl2, 10% glycerol and 1 mM DTT to remove imidazole. All purification steps were done at 4° C.; enzymes were flash-frozen and stored at −70° C. Enzymatic activity of frozen protein preparations was stable for at least 10 months and up to 5 freeze/thaw cycles. Purity and physical integrity of proteins were assessed using SDS-polyacrylamide gel electrophoresis (SDS-PAGE) followed by coomassie blue staining. Protein concentration was estimated by Bradford assay (Bio-Rad Protein Assay™) using bovine serum albumin as a standard.
Candidate MRSA PK inhibitors were assayed for their ability to inhibit enzymatic activities of MRSA and human PKs. PK activity was determined using a continuous assay coupled to lactate dehydrogenase (LDH) in which the change in absorbance at 340 nm owing to oxidation of NADH was measured using a Benchmark Plus™ microplate spectrophotometer (Bio-Rad Laboratories, Hercules, Calif.). […] Reactions were initiated by the addition of 15 nM of one of the PK enzymes. PK activity proportional to the rate of change at 340 nm was expressed as specific activity (μmol/min/mg), which is defined as the amount of PK that catalyzes the formation of one micromole of either product per minute. Inhibitors were dissolved in DMSO with the final concentration of the solvent never exceeding 1% of the assay volume. IC50 values were calculated by curve fitting on a four-parameter dose-response model with variable slope using Graphpad Prism 5.0™ (GraphPad™ Software Inc., La Jolla, Calif.). In all studies, less than 10% of total PEP was exhausted during the reaction. Reactions were performed at 30° C. for up to 5 min. All values determined represent at least two measurements, in triplicate (Tables 1-6) or duplicate unless mentioned otherwise. […]

T1 sequence (Q6GG09 whole entry): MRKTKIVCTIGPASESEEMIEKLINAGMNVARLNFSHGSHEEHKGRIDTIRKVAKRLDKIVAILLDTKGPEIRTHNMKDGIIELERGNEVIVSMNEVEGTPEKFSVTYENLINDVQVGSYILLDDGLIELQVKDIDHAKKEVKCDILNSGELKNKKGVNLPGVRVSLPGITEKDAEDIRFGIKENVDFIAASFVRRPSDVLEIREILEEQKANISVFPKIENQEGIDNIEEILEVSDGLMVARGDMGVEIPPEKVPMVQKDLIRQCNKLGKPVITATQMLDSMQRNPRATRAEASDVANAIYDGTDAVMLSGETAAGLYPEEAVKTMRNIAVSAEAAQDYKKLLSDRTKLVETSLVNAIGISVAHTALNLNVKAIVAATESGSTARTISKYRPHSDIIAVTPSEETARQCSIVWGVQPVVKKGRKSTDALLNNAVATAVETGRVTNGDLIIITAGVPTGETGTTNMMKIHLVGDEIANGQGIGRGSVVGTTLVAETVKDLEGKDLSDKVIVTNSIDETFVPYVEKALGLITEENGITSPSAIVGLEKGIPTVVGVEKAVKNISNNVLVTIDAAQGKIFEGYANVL

Row | SMILES | IC50 [nM]
1 | ON=C(c1c(/C=C/c2ccc(Cl)cc2)[nH]c2cc(Br)ccc12)C(F)(F)F (racemic) [Compound 19, 1-(6-Bromo-2-(4-chlorostyryl)-1H-indol-3-yl)-2,2,2-trifluoroethanone Oxime] | 100 to 1000
2 | O=C(NCCN1CCOCC1)c1c(/C=C/c2ccc(Cl)cc2)[nH]c2cc(Br)ccc12 [Compound 29, (E)-6-Bromo-2-(4-chlorostyryl)-N-(2-morpholinoethyl)-1H-indole-3-carboxamide] | > 1000
3 | O=C(NCc1cccnc1)c1c(/C=C/c2ccc(Cl)nc2)[nH]c2cc(Br)ccc12 [Compound 37, (E)-6-Bromo-2-(2-(6-chloropyridin-3-yl)vinyl)-N-(pyridin-3-ylmethyl)-1 H-indole-3-carboxamide] | 100 to 1000
4 | COc1ccc(CCc2[nH]c3cc(Br)ccc3c2CCO)nc1 [Compound 71, 2-(6-Bromo-2-(2-(5-methoxypyridin-2-yl)ethyl)-1H-indol-3-yl)ethanol] | > 1000
5 | CN(C)CCNC(=O)c1c(NCc2ccc(Cl)cc2)[nH]c2cc(Br)ccc12 [Compound 83, 6-bromo-2-(4-chlorobenzylamino)-N-(2-(dimethylamino)ethyl)-1H-indole-3-carboxamide] | > 1000
6 | CC(=O)OCC(=O)Nc1c(CCc2ccc(Cl)cc2)[nH]c2cc(Br)ccc12 [Compound 97, 2-(6-Bromo-2-(4-chlorophenethyl)-1H-indol-3-ylamino)-2-oxoethyl Acetate] | > 1000
7 | O=C(NCCCO)c1c(-c2cc3cc(Cl)ccc3[nH]2)[nH]c2cc(Br)ccc12 [Compound 133, 6-Bromo-5′-chloro-N-(3-hydroxypropyl)-1H,1′H-[2,2′-biindole]-3-carboxamide] | < 100

System: S. aureus (ATCC29213)
Assay: In vitro susceptibility, broth microdilution (MIC)
Type: cell-based
Conditions: Staphylococcus aureus; S. aureus ATCC29213; 18-24 h, 37 C; read-out: Antimicrobial activity (MIC) S. aureus ATCC29213
Description: Epidemic methicillin resistant S. aureus (MRSA) strain sequenced at the Sanger Centre (MRSA252, NRS71) was obtained from NARSA (Network on Antimicrobial Resistance in S. aureus). Methicillin sensitive S. aureus (ATCC 29213 and 25923), methicillin resistant S. aureus (ATCC BAA-1762), and Salmonella typhimurium (ATCC BAA-185) were obtained from ATCC, The Global Bioresource Center. Acinetobacter baumannii (ATCC 19606 and ATCC 17978), Klebsiella pneumonia (C238), vancomycin resistant Enterococci #2 (2010A) (VRE#2), MRSA (USA400, MW2) and Pseudomonas aeruginosa (PA0-1) were obtained from the laboratory of Dr B. B. Finlay at the University of British Columbia (Vancouver, Canada).
The antimicrobial activities of PK inhibitor candidates were determined using the 96-well microtiter standard 2-fold serial broth microdilution method as described by CLSI (formerly NCCLS) with the various gram-positive and gram-negative bacteria species mentioned above. Bacteria from a single colony were grown, overnight in either BHI Broth (VRE), mueller hinton broth (S. aureus 29213; MRSA USA400, A. baumannii 19606, MRSA BAA-1762) or L-broth (P. aeruginosa, S. typhimurium, K. pneumonia and A. baumannii 17978). […] Culture plates were incubated for 18-24 h at 37° C., and optical density at 600 nm (OD600) was measured using a Benchmark Plus™ microplate spectrophotometer (Bio-Rad™). The absorbance control values for the series containing CAMHB and inhibitor were subtracted as background from the corresponding infected wells. Minimal inhibitory concentration (MIC) was defined as the lowest concentration of test compound leading to complete inhibition of cell growth in relation to compound-free control wells as determined by optical density. Vancomycin, methicillin and ciprofloxicin were used as reference compounds. All assays were run in triplicate or duplicate. Experiments were replicated at least twice to verify reproducibility using the above conditions.

Row | SMILES | MIC [µg/mL]
8 | ON=C(c1c(/C=C/c2ccc(Cl)cc2)[nH]c2cc(Br)ccc12)C(F)(F)F (racemic) [Compound 19, 1-(6-Bromo-2-(4-chlorostyryl)-1H-indol-3-yl)-2,2,2-trifluoroethanone Oxime] | 0.5 (≈ 1.13 µM)
9 | OC(c1c(CCc2cc(Cl)cc(Cl)c2)[nH]c2cc(Br)ccc12)(C(F)(F)F)C(F)(F)F [Compound 15, 2-(6-Bromo-2-(3,5-dichlorophenethyl)-1H-indol-3-yl)-1,1,1,3,3,3-hexafluoropropan-2-ol] | 1 (≈ 1.87 µM)
10 | CNC(=O)c1c(/C=C/c2ccc(Cl)cc2)[nH]c2cc(Br)ccc12 [Compound 20, (E)-6-Bromo-2-(4-chlorostyryl)-N-methyl-1H-indole-3-carboxamide] | 64 (≈ 164 µM)
11 | O=C(NCCN1CCN(C(=O)COCC(=O)N2CCN(CCNC(=O)c3c(/C=C/c4ccc(Cl)cc4)[nH]c4cc(Br)ccc34)CC2)CC1)c1c(/C=C/c2ccc(Cl)cc2)[nH]c2cc(Br)ccc12 [Compound 56, (E)-N,N′-((4,4′-(2,2′-oxybis(acetyl))bis(piperazine-4,1-diyl))bis(ethane-2,1-diyl))bis(6-bromo-2-((E)-4-chlorostyryl)-1H-indole-3-carboxamide)] | > 64
12 | NC(=O)N1CCN(CCNC(=O)c2c(-c3cc4cc(Cl)ccc4[nH]3)[nH]c3cc(Br)ccc23)CC1 [Compound 132, 6-bromo-N-(2-(4-carbamoylpiperazin-1-yl)ethyl)-5′-chloro-1H,1′H-2,2′-biindole-3-carboxamide] | > 64
13 | CS(=O)(=O)NC(=O)CNC(=O)c1c(-c2cc3cc(Cl)ccc3[nH]2)[nH]c2cc(Br)ccc12 [Compound 151, 6-bromo-5′-chloro-N-(2-(methylsulfonamido)-2-oxoethyl)-1H,1′H-[2,2′-biindole]-3-carboxamide] | > 64
14 | O=C(Nc1ccc(Cl)cc1)Nc1nc2ccccc2s1 [Compound 162, 1-(benzo[d]thiazol-2-yl)-3-(4-chlorophenyl)urea] | > 64
15 | O=C(Nc1ccccn1)Nc1nc2cc(Br)ccc2s1 [Compound 163, 1-(5-bromobenzo[d]thiazol-2-yl)-3-(pyridin-2-yl)urea] | > 64
16 | O=C(Nc1ccc(Cl)cc1)Nc1nc2ccccc2o1 [Compound 164, 1-(benzo[d]oxazol-2-yl)-3-(4-chlorophenyl)urea] | > 64
17 | COc1ccc2sc(NC(=O)Nc3ccc(Cl)cc3)nc2c1 [Compound 165, 1-(4-chlorophenyl)-3-(5-methoxybenzo[d]thiazol-2-yl)urea] | > 64
18 | O=C(Nc1ccc(Cl)cc1)Nc1nc2cc([N+](=O)[O-])ccc2s1 [Compound 167, 1-(4-chlorophenyl)-3-(5-nitrobenzo[d]thiazol-2-yl)urea] | > 64
19 | CCOC(=O)c1ccc2sc(NC(=O)Nc3ccc(Cl)cc3)nc2c1 [Compound 171, ethyl 2-(3-(4-chlorophenyl)ureido)benzo[d]thiazole-5-carboxylate] | > 64
20 | O=C(Nc1ccc(Cl)cc1)Nc1nc2cc(Cl)ccc2o1 [Compound 177, 1-(5-chlorobenzo[d]oxazol-2-yl)-3-(4-chlorophenyl)urea] | > 64
21 | O=C(Nc1nc2cc(Cl)ccc2o1)NC1CCCCC1 [Compound 178, 1-(5-chlorobenzo[d]oxazol-2-yl)-3-cyclohexylurea] | > 64
22 | O=C(Nc1ccc(Cl)cc1)Nc1nc2cc(F)ccc2o1 [Compound 179, 1-(4-chlorophenyl)-3-(5-fluorobenzo[d]oxazol-2-yl)urea] | > 64
23 | O=C(Nc1nc2cc(F)ccc2o1)NC1CCCCC1 [Compound 180, 1-cyclohexyl-3-(5-fluorobenzo[d]oxazol-2-yl)urea] | > 64
24 | O=C(O)C1CNCCN1C(=O)c1c(-c2cc3cc(Cl)ccc3[nH]2)[nH]c2cc(Br)ccc12 (centres unmarked) [Compound 225, 1-(6-bromo-5′-chloro-1H,1′H-[2,2′-biindole]-3-carbonyl)piperazine-2-carboxylic Acid] | > 64
25 | COC(=O)[C@@H]1CN(CCNC(=O)c2c(-c3cc4cc(Cl)ccc4[nH]3)[nH]c3cc(Br)ccc23)CCN1C(=O)OCc1ccccc1 [Compound 226, 1-benzyl 2-methyl (S)-4-(2-(6-bromo-5′-chloro-1H,1′H-[2,2′-biindole]-3-carboxamido)ethyl)piperazine-1,2-dicarboxylate] | > 64
26 | COC(=O)[C@@H]1CN(CCNC(=O)c2c(-c3cc4cc(Cl)ccc4[nH]3)[nH]c3cc(Br)ccc23)CCN1 [Compound 227, Methyl (S)-4-(2-(6-bromo-5′-chloro-1H,1′H-[2,2′-biindole]-3-carboxamido)ethyl)piperazine-2-carboxylate] | > 64
